# Assay results published in publication PMC5218480 (PLoS ONE, 2017).
# Tested on: MV-4-11 cells
# Test: Gene expression microarray analysis (Affymetrix PrimeView) and GSEA
# Format: cell-based, human
# Set-up: RFU PODN (11730768_x_at) / Fold change /veh PODN (11730768_x_at) / RFU LINC00158 (11744669_a_at) / Fold change /veh LINC00158 (11744669_a_at) / RFU DUSP10 (11751237_a_at) / Fold change /veh DUSP10 (11751237_a_at) / RFU ID3 (11757404_x_at) / Fold change /veh ID3 (11757404_x_at) / RFU PLEKHG5 (11737974_s_at) / Fold change /veh PLEKHG5 (11737974_s_at) / RFU LRRC4B (11730491_at) / Fold change /veh LRRC4B (11730491_at) / RFU GIMAP4 (11747438_a_at) / Fold change /veh GIMAP4 (11747438_a_at) / RFU KRT8 (11758183_x_at) / Fold change /veh KRT8 (11758183_x_at) / RFU CNN1 (11734310_a_at) / Fold change /veh CNN1 (11734310_a_at) / RFU VPS37D (11726825_at) / Fold change /veh VPS37D (11726825_at) / RFU C10orf10 (11716522_x_at) / Fold change /veh C10orf10 (11716522_x_at) / RFU KIR2DL2 /// KIR2DL4 /// KIR2DL5A /// KIR2DL5B /// KIR2DS1 /// KIR2DS2 /// KIR2DS3 /// KIR2DS4 /// KIR3DL3 /// KIR3DL3 /// KIR3DS1 (11738374_at) / Fold change /veh KIR2DL2 /// KIR2DL4 /// KIR2DL5A /// KIR2DL5B /// KIR2DS1 /// KIR2DS2 /// KIR2DS3 /// KIR2DS4 /// KIR3DL3 /// KIR3DL3 /// KIR3DS1 (11738374_at) / RFU C1QL1 (11718748_at) / Fold change /veh C1QL1 (11718748_at) / RFU TMPRSS4 (11747572_a_at) / Fold change /veh TMPRSS4 (11747572_a_at) / RFU HAMP (11756126_x_at) / Fold change /veh HAMP (11756126_x_at) / RFU RNFT2 (11725882_a_at) / Fold change /veh RNFT2 (11725882_a_at) / RFU NR4A2 (11747474_a_at) / Fold change /veh NR4A2 (11747474_a_at) / RFU ABCC12 (11746883_a_at) / Fold change /veh ABCC12 (11746883_a_at) / RFU TMEM136 (11760407_x_at) / Fold change /veh TMEM136 (11760407_x_at) / RFU CLDN22 /// WWC2 (11732394_at) / Fold change /veh CLDN22 /// WWC2 (11732394_at) / RFU HLA-DPB1 (11760878_x_at) / Fold change /veh HLA-DPB1 (11760878_x_at) / RFU SPINT1 (11716480_a_at) / Fold change /veh SPINT1 (11716480_a_at) / RFU GAP43 (11754022_s_at) / Fold change /veh GAP43 (11754022_s_at) / RFU A4GNT (11735810_at) / Fold change /veh A4GNT (11735810_at) / RFU PRB3 (11715151_x_at) / Fold change /veh PRB3 (11715151_x_at) / RFU TUBB4B (11761932_at) / Fold change /veh TUBB4B (11761932_at) / RFU CAPN14 (11732068_a_at) / Fold change /veh CAPN14 (11732068_a_at) / RFU TMCC2 (11721928_a_at) / Fold change /veh TMCC2 (11721928_a_at) / RFU IRGQ (11745062_a_at) / Fold change /veh IRGQ (11745062_a_at) / RFU FAM174B (11720279_a_at) / Fold change /veh FAM174B (11720279_a_at) / RFU TMPRSS4 (11748680_a_at) / Fold change /veh TMPRSS4 (11748680_a_at) / RFU FAM212B (11763350_a_at) / Fold change /veh FAM212B (11763350_a_at) / RFU PLEKHG5 (11743358_a_at) / Fold change /veh PLEKHG5 (11743358_a_at) / RFU ZSCAN30 (11745921_a_at) / Fold change /veh ZSCAN30 (11745921_a_at) / RFU CMKLR1 (11741424_a_at) / Fold change /veh CMKLR1 (11741424_a_at) / RFU LOC101060620 /// MAPK8IP1 (11723275_at) / Fold change /veh LOC101060620 /// MAPK8IP1 (11723275_at) / RFU SPTSSB (11747773_x_at) / Fold change /veh SPTSSB (11747773_x_at) / RFU PRSS12 (11739890_at) / Fold change /veh PRSS12 (11739890_at) / RFU BIN1 (11741810_x_at) / Fold change /veh BIN1 (11741810_x_at) / RFU WNT11 (11732464_a_at) / Fold change /veh WNT11 (11732464_a_at) / RFU C10orf10 (11716521_a_at) / Fold change /veh C10orf10 (11716521_a_at) / RFU C5orf56 (11738089_at) / Fold change /veh C5orf56 (11738089_at) / RFU CYB561 (11721691_x_at) / Fold change /veh CYB561 (11721691_x_at) / RFU ANKRD19P (11752326_a_at) / Fold change /veh ANKRD19P (11752326_a_at) / RFU OR2T12 /// OR2T33 /// OR2T8 (11738714_s_at) / Fold change /veh OR2T12 /// OR2T33 /// OR2T8 (11738714_s_at) / RFU VCAN (11748164_a_at) / Fold change /veh VCAN (11748164_a_at) / RFU JSRP1 (11732532_at) / Fold change /veh JSRP1 (11732532_at) / RFU KRTAP10-11 (11738290_x_at) / Fold change /veh KRTAP10-11 (11738290_x_at) / RFU MYO3A (11730013_a_at) / Fold change /veh MYO3A (11730013_a_at) / RFU EBF3 (11725865_a_at) / Fold change /veh EBF3 (11725865_a_at) / RFU CAMK2N1 (11719241_x_at) / Fold change /veh CAMK2N1 (11719241_x_at) / RFU C5orf56 (11738088_a_at) / Fold change /veh C5orf56 (11738088_a_at) / RFU OLFML3 (11715873_a_at) / Fold change /veh OLFML3 (11715873_a_at) / RFU LOC100653217 /// NTM (11731650_a_at) / Fold change /veh LOC100653217 /// NTM (11731650_a_at) / RFU MAPK11 (11762145_a_at) / Fold change /veh MAPK11 (11762145_a_at) / RFU FIZ1 (11724087_x_at) / Fold change /veh FIZ1 (11724087_x_at) / RFU OASL (11726364_x_at) / Fold change /veh OASL (11726364_x_at) / RFU SOX15 (11748057_x_at) / Fold change /veh SOX15 (11748057_x_at) / RFU CD79A (11719716_a_at) / Fold change /veh CD79A (11719716_a_at) / RFU HIST1H1D (11736915_at) / Fold change /veh HIST1H1D (11736915_at) / RFU CASKIN2 (11723855_a_at) / Fold change /veh CASKIN2 (11723855_a_at) / RFU LOC730098 (11760151_x_at) / Fold change /veh LOC730098 (11760151_x_at) / RFU OR4N2 (11742367_at) / Fold change /veh OR4N2 (11742367_at) / RFU PRRT2 (11749266_a_at) / Fold change /veh PRRT2 (11749266_a_at) / RFU SNX32 (11753110_a_at) / Fold change /veh SNX32 (11753110_a_at) / RFU CDHR5 (11726645_a_at) / Fold change /veh CDHR5 (11726645_a_at) / RFU RCAN1 (11760418_a_at) / Fold change /veh RCAN1 (11760418_a_at) / RFU FAM167A (11723789_a_at) / Fold change /veh FAM167A (11723789_a_at) / RFU FAM26E (11764081_at) / Fold change /veh FAM26E (11764081_at) / RFU ISYNA1 (11749810_s_at) / Fold change /veh ISYNA1 (11749810_s_at) / RFU ACY1 (11761880_at) / Fold change /veh ACY1 (11761880_at) / RFU 11764098_at / Fold change /veh 11764098_at / RFU SAMD14 (11745864_x_at) / Fold change /veh SAMD14 (11745864_x_at) / RFU NPB (11741838_a_at) / Fold change /veh NPB (11741838_a_at) / RFU TMPRSS6 (11731388_a_at) / Fold change /veh TMPRSS6 (11731388_a_at) / RFU KRTAP10-2 (11738614_at) / Fold change /veh KRTAP10-2 (11738614_at) / RFU ARHGAP8 /// PRR5-ARHGAP8 (11727945_x_at) / Fold change /veh ARHGAP8 /// PRR5-ARHGAP8 (11727945_x_at) / RFU KRTAP5-7 /// NADSYN1 (11734609_at) / Fold change /veh KRTAP5-7 /// NADSYN1 (11734609_at) / RFU RASL12 (11751679_a_at) / Fold change /veh RASL12 (11751679_a_at) / RFU CDKN2B (11736163_a_at) / Fold change /veh CDKN2B (11736163_a_at) / RFU PRF1 (11729649_at) / Fold change /veh PRF1 (11729649_at) / RFU, ZNF638 /// ZNF638-IT1 / Fold change vs veh, ZNF638 /// ZNF638-IT1 / RFU, PANK3 / Fold change vs veh, PANK3 / RFU, SH3YL1 / Fold change vs veh, SH3YL1 / RFU, ZEB2 / Fold change vs veh, ZEB2 / RFU, NRIP1 / Fold change vs veh, NRIP1 / RFU, PTTG1IP / Fold change vs veh, PTTG1IP / RFU, CAPN2 / Fold change vs veh, CAPN2 / RFU, MED14 / Fold change vs veh, MED14 / RFU, SNORA58 / Fold change vs veh, SNORA58 / RFU, C1orf63 / Fold change vs veh, C1orf63 / RFU, LRRFIP1 / Fold change vs veh, LRRFIP1 / RFU, NDUFAF7 / Fold change vs veh, NDUFAF7 / RFU, SLC12A2 / Fold change vs veh, SLC12A2 / RFU, IBTK / Fold change vs veh, IBTK / RFU, ESF1 / Fold change vs veh, ESF1 / Fold change vs veh, TMEM50B / RFU, TAOK1 / Fold change vs veh, TAOK1 / RFU, ACBD3 / Fold change vs veh, ACBD3 / RFU, TMA16 / Fold change vs veh, TMA16 / RFU, RWDD3 / Fold change vs veh, RWDD3 / RFU, BCAT1 / Fold change vs veh, BCAT1 / RFU, EDEM3 / Fold change vs veh, EDEM3 / RFU, TMEM33 / Fold change vs veh, TMEM33 / RFU, WDR75 / Fold change vs veh, WDR75 / RFU, AHCTF1 / Fold change vs veh, AHCTF1 / RFU, TFRC / Fold change vs veh, TFRC / RFU, ZDHHC17 / Fold change vs veh, ZDHHC17 / RFU, NOM1 / Fold change vs veh, NOM1 / RFU, ARL8B / Fold change vs veh, ARL8B / RFU, ZBTB11 / Fold change vs veh, ZBTB11 / RFU, TAMM41 / Fold change vs veh, TAMM41 / RFU, KIAA1704 /// LOC100996395 / Fold change vs veh, KIAA1704 /// LOC100996395 / RFU, ING1 / Fold change vs veh, ING1 / RFU, TRMT61B / Fold change vs veh, TRMT61B / RFU, FUBP3 / Fold change vs veh, FUBP3 / RFU, TP53 / Fold change vs veh, TP53 / RFU, TNKS2 / Fold change vs veh, TNKS2 / RFU, ZFP14 / Fold change vs veh, ZFP14 / RFU, ACTR2 / Fold change vs veh, ACTR2 / RFU, PPP3R1 / Fold change vs veh, PPP3R1 / RFU, PIK3R1 / Fold change vs veh, PIK3R1 / RFU, HNRNPA1 / Fold change vs veh, HNRNPA1 / RFU, RNF170 / Fold change vs veh, RNF170 / RFU, ZNF28 / Fold change vs veh, ZNF28 / RFU, RNGTT / Fold change vs veh, RNGTT / RFU, OGT / Fold change vs veh, OGT / RFU, BRD1 / Fold change vs veh, BRD1 / RFU, MARS / Fold change vs veh, MARS / RFU, ZNF655 / Fold change vs veh, ZNF655 / RFU, FAHD1 / Fold change vs veh, FAHD1 / RFU, BDP1 / Fold change vs veh, BDP1 / RFU, LRRCC1 / Fold change vs veh, LRRCC1 / RFU, ARID1A / Fold change vs veh, ARID1A / RFU, ZNF146 / Fold change vs veh, ZNF146 / RFU, ZNF330 / Fold change vs veh, ZNF330 / RFU, GPN3 / Fold change vs veh, GPN3 / RFU, C9orf123 / Fold change vs veh, C9orf123 / RFU, N4BP2L2 / Fold change vs veh, N4BP2L2 / RFU, ARFIP1 / Fold change vs veh, ARFIP1 / RFU, FAM179B / Fold change vs veh, FAM179B / RFU, BCL10 / Fold change vs veh, BCL10 / RFU, UHRF1BP1L / Fold change vs veh, UHRF1BP1L / RFU, BET1 / Fold change vs veh, BET1 / RFU, CNOT2 / Fold change vs veh, CNOT2 / RFU, ZNF268 / Fold change vs veh, ZNF268 / Fold change vs veh, ZNF507 / RFU, DGCR2 / Fold change vs veh, DGCR2 / RFU, WDSUB1 / Fold change vs veh, WDSUB1 / Fold change vs veh, HSP90B1 /// MIR3652 / RFU, ADSS / Fold change vs veh, ADSS / RFU, GK / Fold change vs veh, GK / RFU, ZNF148 / Fold change vs veh, ZNF148 / RFU, TAF9 / Fold change vs veh, TAF9 / RFU, SLC1A5 / Fold change vs veh, SLC1A5 / RFU, SLMO2 / Fold change vs veh, SLMO2 / RFU, ABCC4 / Fold change vs veh, ABCC4 / RFU, LOC101060439 /// RAP1B / Fold change vs veh, LOC101060439 /// RAP1B / RFU, RFX7 / Fold change vs veh, RFX7 / RFU, GTPBP10 / Fold change vs veh, GTPBP10 / RFU, CNEP1R1 / Fold change vs veh, CNEP1R1 / RFU, BIVM-ERCC5 /// ERCC5 / Fold change vs veh, BIVM-ERCC5 /// ERCC5 / RFU, ILF3 / Fold change vs veh, ILF3 / RFU 11762660_at / Fold change /veh 11762660_at / RFU VCAN (11757783_s_at) / Fold change /veh VCAN (11757783_s_at) / RFU DDX43 (11728927_at) / Fold change /veh DDX43 (11728927_at) / RFU KRT8 (11758188_x_at) / Fold change /veh KRT8 (11758188_x_at) / RFU NKD1 (11759106_at) / Fold change /veh NKD1 (11759106_at) / RFU SRD5A1 (11742802_a_at) / Fold change /veh SRD5A1 (11742802_a_at) / RFU TPSAB1 /// TPSB2 (11721975_s_at) / Fold change /veh TPSAB1 /// TPSB2 (11721975_s_at) / RFU GSTM3 (11746129_a_at) / Fold change /veh GSTM3 (11746129_a_at) / RFU IL23R (11737362_x_at) / Fold change /veh IL23R (11737362_x_at) / RFU TMEM51 (11727254_a_at) / Fold change /veh TMEM51 (11727254_a_at) / RFU PIWIL2 (11732686_x_at) / Fold change /veh PIWIL2 (11732686_x_at) / RFU ORM1 (11744905_x_at) / Fold change /veh ORM1 (11744905_x_at) / RFU CCDC152 (11743942_at) / Fold change /veh CCDC152 (11743942_at) / RFU ECM1 (11717891_a_at) / Fold change /veh ECM1 (11717891_a_at) / RFU IL23R (11748794_a_at) / Fold change /veh IL23R (11748794_a_at) / RFU TNFAIP8L3 (11732012_x_at) / Fold change /veh TNFAIP8L3 (11732012_x_at) / RFU MBOAT4 (11741988_at) / Fold change /veh MBOAT4 (11741988_at) / RFU 11764193_at / Fold change /veh 11764193_at / RFU TMEM53 (11763286_at) / Fold change /veh TMEM53 (11763286_at) / RFU MAGEB2 (11727129_at) / Fold change /veh MAGEB2 (11727129_at) / RFU TMEM200A (11744735_a_at) / Fold change /veh TMEM200A (11744735_a_at) / RFU CCDC152 (11751479_a_at) / Fold change /veh CCDC152 (11751479_a_at) / RFU FAM211A (11726209_a_at) / Fold change /veh FAM211A (11726209_a_at) / RFU RGS16 (11746705_a_at) / Fold change /veh RGS16 (11746705_a_at) / RFU VCAN (11755009_s_at) / Fold change /veh VCAN (11755009_s_at) / RFU RHOB (11743442_s_at) / Fold change /veh RHOB (11743442_s_at) / RFU RGS16 (11720943_a_at) / Fold change /veh RGS16 (11720943_a_at) / RFU RGS16 (11720944_at) / Fold change /veh RGS16 (11720944_at) / RFU, VPS4B / Fold change vs veh, VPS4B / RFU, CREB1 / Fold change vs veh, CREB1 / RFU, DNAJC13 / Fold change vs veh, DNAJC13 / RFU, GNAQ / Fold change vs veh, GNAQ / RFU, CDK5R1 / Fold change vs veh, CDK5R1 / RFU, ZRANB3 / Fold change vs veh, ZRANB3 / RFU, CUL4A / Fold change vs veh, CUL4A / RFU, CCNY / Fold change vs veh, CCNY / RFU, UFL1 / Fold change vs veh, UFL1 / RFU, COG3 / Fold change vs veh, COG3 / RFU, DIAPH2 / Fold change vs veh, DIAPH2 / RFU, SKA2 / Fold change vs veh, SKA2 / RFU, AFF3 / Fold change vs veh, AFF3 / RFU, LMF1 / Fold change vs veh, LMF1 / RFU, IPO11 / Fold change vs veh, IPO11 / RFU, DFFB / Fold change vs veh, DFFB / RFU, FOXP1 / Fold change vs veh, FOXP1 / RFU, CARD8 / Fold change vs veh, CARD8 / RFU, STRN3 / Fold change vs veh, STRN3 / RFU, ADK / Fold change vs veh, ADK / RFU, RASSF2 / Fold change vs veh, RASSF2 / RFU, WIPF1 / Fold change vs veh, WIPF1 / RFU, LARP1B / Fold change vs veh, LARP1B / RFU, RASA1 / Fold change vs veh, RASA1 / RFU, RB1 / Fold change vs veh, RB1 / RFU, PPFIA1 / Fold change vs veh, PPFIA1 / RFU, MAT2A / Fold change vs veh, MAT2A / RFU, CCT5 / Fold change vs veh, CCT5 / RFU, WDR92 / Fold change vs veh, WDR92 / RFU, CUX1 / Fold change vs veh, CUX1 / RFU, TTC7A / Fold change vs veh, TTC7A / RFU, TMEM135 / Fold change vs veh, TMEM135 / RFU, DEPTOR / Fold change vs veh, DEPTOR / RFU, CPM / Fold change vs veh, CPM / RFU, DNAJB6 / Fold change vs veh, DNAJB6 / RFU, CACNA2D3 / Fold change vs veh, CACNA2D3 / RFU, DTX4 / Fold change vs veh, DTX4 / RFU, TFCP2 / Fold change vs veh, TFCP2 / RFU, GMCL1 /// GMCL1P1 / Fold change vs veh, GMCL1 /// GMCL1P1 / RFU, AEBP2 / Fold change vs veh, AEBP2 / RFU, SNHG1 /// SNORD22 /// SNORD25 /// SNORD26 /// SNORD27 /// SNORD28 /// SNORD29 /// SNORD31 / Fold change vs veh, SNHG1 /// SNORD22 /// SNORD25 /// SNORD26 /// SNORD27 /// SNORD28 /// SNORD29 /// SNORD31 / Fold change (Aza/veh), C12orf56 (ProbeSet 11735607_a_at) / Fold change (ACY-1035/veh), C12orf56 (ProbeSet 11735607_a_at) / Fold change (Aza/veh), FGFR1OP (ProbeSet 11751329_s_at) / Fold change (ACY-1035/veh), FGFR1OP (ProbeSet 11751329_s_at) / Fold change (Aza/veh), VPS36 (ProbeSet 11739960_a_at) / Fold change (ACY-1035/veh), VPS36 (ProbeSet 11739960_a_at) / RFU SYPL1 (11715823_x_at) / Fold change /veh SYPL1 (11715823_x_at) / RFU IGFBP7 (11715501_s_at) / Fold change /veh IGFBP7 (11715501_s_at) / RFU REEP3 (11722064_at) / Fold change /veh REEP3 (11722064_at) / RFU IGLL1 (11728026_x_at) / Fold change /veh IGLL1 (11728026_x_at): dose or concentration left out as unconfirmed
# Details: ProbeSet 11721611_a_at; LIST D
smiles,measurement,value
Nc1ncn([C@@H]2O[C@H](CO)[C@@H](O)[C@H]2O)c(=O)n1 [azacitidine],"RFU, IPO11",64.89 RFU
